Assay results as given in US20160050930A1, “METHODS OF CONTROLLING NEONICOTINOID RESISTANT PESTS” (SYNGENTA PARTICIPATIONS AG, priority 2013, published 2016).
Counter-ions that a name gives are not always drawn.

| melting point [°C] | SMILES |
| --- | --- |
| 125 to 127 | CC(C)(C)OC(=O)N1[C@@H]2CC[C@H]1C[C@](C#N)(c1cncc(Br)c1)C2 |
| 152 to 153 | N#C[C@@]1(c2cncc(Br)c2)C[C@H]2C=C[C@@H](C1)N2 |
| 170 to 171 | N#C[C@@]1(c2cncc(I)c2)C[C@H]2C=C[C@@H](C1)N2C1COC1 |
| 176 to 178 | N#C[C@@]1(c2cncc(Br)c2)C[C@H]2CC[C@@H](C1)N2 (as salt: TFA) |
| 128 to 130 | N#C[C@@]1(c2cncc(Br)c2)C[C@H]2CC[C@@H](C1)N2 |
| 91 to 93 | N#C[C@@]1(c2cncc(F)c2)C[C@H]2C=C[C@@H](C1)N2C1CCC1 |
